Reference: ChEMBL document CHEMBL4665792 (J Med Chem, 2020)
Active and inactive are the calls of the source. The calls are words filed in the database; no cut-off is given here.

What was measured:
[1] = Inhibition of TrxR in human HT-29 cells incubated for 30 mins in presence of insulin, NADPH and Trx by DTNB reagent based assay; type: cell-based
[2] = Inhibition of TrxR in human HT-29 cells incubated for 60 mins in presence of insulin, NADPH and Trx by DTNB reagent based assay; type: cell-based
[3] = Inhibition of TrxR in human HT-29 cells incubated for 90 mins in presence of insulin, NADPH and Trx by DTNB reagent based assay; type: cell-based
[4] = system: HT-29; assay: Antiproliferative activity against human HT-29 cells assessed as reduction in cell viability incubated for 24 hrs by MTT assay; type: functional, cell-based; conditions: HT-29, 24 h
[5] = system: HCT-116; assay: Antiproliferative activity against human HCT-116 cells assessed as reduction in cell viability incubated for 24 hrs by MTT assay; type: functional, cell-based; conditions: HCT-116, 24 h
[6] = system: HepG2; assay: Antiproliferative activity against human HepG2 cells assessed as reduction in cell viability incubated for 24 hrs by MTT assay; type: functional, cell-based; conditions: HepG2, 24 h
[7] = system: MCF7; assay: Antiproliferative activity against human MCF7 cells assessed as reduction in cell viability incubated for 24 hrs by MTT assay; type: functional, cell-based; conditions: MCF7, 24 h
[8] = system: L02; assay: Cytotoxicity against human L02 cells assessed as cell viability incubated for 24 hrs by MTT assay; type: cell-based; conditions: L02, 24 h
[9] = system: HK-2; assay: Cytotoxicity against human HK2 cells assessed as cell viability incubated for 24 hrs by MTT assay; type: cell-based; conditions: HK-2, 24 h
[10] = Inhibition of TrxR (unknown origin) in presence of NADPH by Ellman's method; design: species or system Homo sapiens
[11] = Inhibition of Escherichia coli Trx incubated for 1.5 hrs in presence of DTT and insulin
[12] = Covalent inhibition of TrxR (unknown origin) assessed as covalent bond formation incubated up to 30 mins in presence of NADPH by Ellman's method; design: species or system Homo sapiens
[13] = system: HT-29; assay: Inhibition of TrxR in human HT-29 cells incubated for 24 hrs in presence of insulin, NADPH and Trx by DTNB reagent based assay; type: cell-based
[14] = target: T1, Thioredoxin (Homo sapiens) (UniProt P10599); assay: Inhibition of Trx in human HT-29 cells incubated for 24 hrs in presence of insulin, NADPH and DTT; type: cell-based
T1 sequence (whole entry): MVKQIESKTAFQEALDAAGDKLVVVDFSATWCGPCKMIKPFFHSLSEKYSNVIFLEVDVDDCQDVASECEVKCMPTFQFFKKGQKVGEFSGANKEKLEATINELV

[15] = target: T2, Glutathione reductase, mitochondrial (Homo sapiens) (UniProt P00390); assay: Inhibition of GR in human HT-29 cells incubated for 24 hrs in presence of GSSG and NADPH; type: cell-based
T2 sequence (whole entry): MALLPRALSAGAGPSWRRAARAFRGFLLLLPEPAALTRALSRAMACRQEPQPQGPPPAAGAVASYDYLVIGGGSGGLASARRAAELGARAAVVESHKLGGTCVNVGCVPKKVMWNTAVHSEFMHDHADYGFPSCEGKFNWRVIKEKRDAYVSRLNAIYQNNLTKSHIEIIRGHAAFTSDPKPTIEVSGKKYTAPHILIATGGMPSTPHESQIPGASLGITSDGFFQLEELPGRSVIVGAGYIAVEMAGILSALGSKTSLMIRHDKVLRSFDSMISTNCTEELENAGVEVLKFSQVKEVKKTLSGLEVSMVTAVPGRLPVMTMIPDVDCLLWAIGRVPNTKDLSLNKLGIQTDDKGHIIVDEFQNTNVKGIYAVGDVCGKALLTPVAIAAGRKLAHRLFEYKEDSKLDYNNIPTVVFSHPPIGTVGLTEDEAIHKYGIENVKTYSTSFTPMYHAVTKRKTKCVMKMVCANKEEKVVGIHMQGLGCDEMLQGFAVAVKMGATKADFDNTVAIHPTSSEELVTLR

[16] = system: HT-29; assay: Inhibition of GPx in human HT-29 cells incubated for 24 hrs in presence of GSH, NADPH and GR measured at 10 secs interval for 4 mins; type: cell-based; conditions: time 1444.0 min

With `CC(=O)O[C@H]1C=C([C@H](C)[C@H]2CC(C)=C(C)C(=O)O2)[C@@]2(C)CC[C@H]3[C@@H](C[C@H]4O[C@]45[C@@H](OC(=O)CCC(=O)N(C)C)C=CC(=O)[C@]35C)[C@]12O` the IC50 [1] was 3810 nM, the IC50 [2] was 2910 nM and the IC50 [3] was 2150 nM.
Compound `O=c1c(O)c(-c2cc(O)c(O)c(O)c2)oc2cc(O)cc(O)c12` [MYRICETIN] has an IC50 [4] of over 20000 nM, an IC50 [5] of over 20000 nM and an IC50 [6] of over 20000 nM. The IC50 [7] was over 20000 nM, the IC50 [8] was over 20000 nM and the IC50 [9] was over 20000 nM. It also gave an IC50 [1] of 930 nM, an IC50 [2] of 720 nM and an IC50 [3] of 650 nM.
In the case of `CC(=O)O[C@H]1C=C([C@H](C)[C@H]2CC(C)=C(C)C(=O)O2)[C@@]2(C)CC[C@H]3[C@@H](C[C@H]4O[C@]45[C@@H](O)C=CC(=O)[C@]35C)[C@]12O`, the IC50 [4] is reported as 2480 nM, the IC50 [5] is reported as 2370 nM and the IC50 [6] is reported as 2850 nM. For the same compound, the IC50 [7] was 6320 nM, the IC50 [8] was 8210 nM and the IC50 [9] was 6410 nM. The IC50 [10] was 2640 nM, the IC50 [11] was over 2500 nM and the IC50 [1] was 4920 nM. It also gave an IC50 [2] of 3350 nM, an IC50 [3] of 2640 nM and a Ki [12] of 9120 nM. The inhibition [13] was “Active”, the inhibition [14] was “Active” and the inhibition [15] was “Active”. The inhibition [16] was “Active”.
With `CC(=O)O[C@H]1C=C([C@H](C)[C@H]2CC(C)=C(C)C(=O)O2)[C@@]2(C)CC[C@H]3[C@@H](C[C@H]4O[C@]45[C@@H](OC(=O)CNC(=O)OC(C)(C)C)C=CC(=O)[C@]35C)[C@]12O` the IC50 [4] was 630 nM, the IC50 [5] was 470 nM and the IC50 [6] was 640 nM. The IC50 [7] was 2160 nM.
With `CC(=O)O[C@H]1C=C([C@H](C)[C@H]2CC(C)=C(C)C(=O)O2)[C@@]2(C)CC[C@H]3[C@@H](C[C@H]4O[C@]45[C@@H](OC(=O)CCc4ccccc4)C=CC(=O)[C@]35C)[C@]12O` the IC50 [4] was 4050 nM, the IC50 [5] was 5840 nM and the IC50 [6] was 5760 nM. It also gave an IC50 [7] of 8180 nM.
`CC(=O)O[C@H]1C=C([C@H](C)[C@H]2CC(C)=C(C)C(=O)O2)[C@@]2(C)CC[C@H]3[C@@H](C[C@H]4O[C@]45[C@@H](OC(=O)N4CCCC4)C=CC(=O)[C@]35C)[C@]12O` gave an IC50 [4] of 1120 nM, an IC50 [5] of 890 nM and an IC50 [6] of 1230 nM. The IC50 [7] was 2140 nM.
Work on `CC(=O)O[C@H]1C=C([C@H](C)[C@H]2CC(C)=C(C)C(=O)O2)[C@@]2(C)CC[C@H]3[C@@H](C[C@H]4O[C@]45[C@@H](OC(=O)C(CC(C)C)NC(=O)OC(C)(C)C)C=CC(=O)[C@]35C)[C@]12O` (stereo partly specified) yielded an IC50 [4] of 780 nM, an IC50 [5] of 330 nM and an IC50 [6] of 520 nM. For the same compound, the IC50 [7] was 1060 nM.
In the case of `C=CC(=O)O[C@H]1C=CC(=O)[C@]2(C)[C@H]3CC[C@]4(C)C([C@H](C)[C@H]5CC(C)=C(C)C(=O)O5)=C[C@H](OC(C)=O)[C@@]4(O)[C@@H]3C[C@H]3O[C@]132`, the IC50 [4] is reported as 780 nM, the IC50 [5] is reported as 330 nM and the IC50 [6] is reported as 520 nM. For the same compound, the IC50 [7] was 1060 nM, the IC50 [1] was 3910 nM and the IC50 [2] was 2850 nM. The IC50 [3] was 2060 nM.
For `C/C=C/C(=O)O[C@H]1C=CC(=O)[C@]2(C)[C@H]3CC[C@]4(C)C([C@H](C)[C@H]5CC(C)=C(C)C(=O)O5)=C[C@H](OC(C)=O)[C@@]4(O)[C@@H]3C[C@H]3O[C@]132`, the IC50 [4] was 370 nM, the IC50 [5] was 230 nM and the IC50 [6] was 300 nM. For the same compound, the IC50 [7] was 530 nM.
With `CC(=O)O[C@H]1C=C([C@H](C)[C@H]2CC(C)=C(C)C(=O)O2)[C@@]2(C)CC[C@H]3[C@@H](C[C@H]4O[C@]45[C@@H](OC(=O)N4CCCCC4)C=CC(=O)[C@]35C)[C@]12O` the IC50 [4] was 1380 nM, the IC50 [5] was 730 nM and the IC50 [6] was 410 nM. The IC50 [7] was 4310 nM.
`CCC(C)C(NC(=O)OC(C)(C)C)C(=O)O[C@H]1C=CC(=O)[C@]2(C)[C@H]3CC[C@]4(C)C([C@H](C)[C@H]5CC(C)=C(C)C(=O)O5)=C[C@H](OC(C)=O)[C@@]4(O)[C@@H]3C[C@H]3O[C@]132` (stereo partly specified) gave an IC50 [4] of 1080 nM, an IC50 [5] of 570 nM and an IC50 [6] of 1660 nM. The IC50 [7] was 4810 nM.
Work on `CCN(CC)C(=O)/C=C/C(=O)O[C@H]1C=CC(=O)[C@]2(C)[C@H]3CC[C@]4(C)C([C@H](C)[C@H]5CC(C)=C(C)C(=O)O5)=C[C@H](OC(C)=O)[C@@]4(O)[C@@H]3C[C@H]3O[C@]132` yielded an IC50 [4] of 300 nM, an IC50 [5] of 250 nM and an IC50 [6] of 310 nM. It also gave an IC50 [7] of 450 nM.
Compound `CC(=O)O[C@H]1C=C([C@H](C)[C@H]2CC(C)=C(C)C(=O)O2)[C@@]2(C)CC[C@H]3[C@@H](C[C@H]4O[C@]45[C@@H](OC(=O)C4CCCN4C(=O)OC(C)(C)C)C=CC(=O)[C@]35C)[C@]12O` (stereo partly specified) has an IC50 [4] of 1010 nM, an IC50 [5] of 670 nM and an IC50 [6] of 1060 nM. For the same compound, the IC50 [7] was 2100 nM.
